Where a name gives a salt, the structure may show the parent alone.
What was measured:
5-HT3 receptors = target: T1, 5-HT3 receptors (Mus musculus, UniProt P23979); assay: Bezold-Jarisch assay in vivo: inhibition of serotonin induced bradycardia; settings: 30 mg/kg orally, 60 min before 5-HT 0.5 mg/kg IV, pentobarbital-anesthetized
T1 construct: from tissue; host or cells: whole animal, CD-1(Crl.) mice
T1 sequence (P23979 24-489): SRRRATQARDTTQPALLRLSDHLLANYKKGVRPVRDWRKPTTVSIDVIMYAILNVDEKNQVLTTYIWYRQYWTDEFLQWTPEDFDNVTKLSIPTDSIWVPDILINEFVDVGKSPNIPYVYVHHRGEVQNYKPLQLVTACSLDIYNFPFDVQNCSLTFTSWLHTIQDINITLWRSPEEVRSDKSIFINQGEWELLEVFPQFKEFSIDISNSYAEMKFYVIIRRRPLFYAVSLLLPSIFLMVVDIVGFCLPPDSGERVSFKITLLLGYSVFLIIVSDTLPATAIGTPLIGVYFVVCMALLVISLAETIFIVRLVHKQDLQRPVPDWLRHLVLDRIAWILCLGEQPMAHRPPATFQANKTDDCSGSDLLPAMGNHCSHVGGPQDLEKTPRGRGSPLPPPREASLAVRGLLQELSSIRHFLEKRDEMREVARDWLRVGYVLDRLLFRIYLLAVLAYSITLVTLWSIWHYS
Protocol: Bezold-Jarisch Assay in vivo. […] Arch. Int. Pharmacodyn. 277: 235-252, 1985]. Test substances and vehicle [2% Tween 80] were each administered orally (30 mg/kg) to a group of 5 male or female CD-1(Crl.) mice each weighing 24±2 g. A dosing volume of 10 mL/kg was used. Sixty minutes later, 5-HT (0.5 mg/kg IV)-induced bradycardia was recorded in pentobarbital (80 mg/kg IP, given 10 minutes before 5-HT)-anesthetized animals.

mouse 5-HT3 receptor = target: T2, mouse 5-HT3 receptor (Mus musculus, UniProt P23979); assay: Compound affinity for the mouse 5-HT3 receptor (Assay C), [3H]-GR65630 radioligand binding, Novoscreen; settings: Assay C; single concentration 100 nM, in duplicate; [3H]-GR65630; read-out: Mouse % Inhibition @ 100 nM
T2 construct: host or cells: mouse neuroblastoma cells (N1E-155 as printed)
T2 sequence (P23979 24-489): T1 sequence (P23979 24-489)
Protocol: Compound Affinity for the Mouse 5-HT3Receptor (Assay C)
(§1) Compounds were tested by Novoscreen Biosciences Corporation, 7170 Standard Drive, Hanover, Md. in a radioligand binding assay using the mouse 5-HT3 receptor derived from mouse neuroblastoma cells and [^3H]-GR65630 (ligand). The non-specific binding determinant was MDL 72222. Compounds were tested at a single concentration of 100 nM in duplicate. Percent inhibition is reported. In order to evaluate the relative affinity of the various compounds for the 5-HT3 receptor, N1E-155 cell lines were developed to express the target protein. For binding, these cells were homogenized, centrifuged and washed with buffer (20 mM HEPES, 150 mM NaCl, pH 7.4) then suspended in 0.5 mL of buffer and [^3H]-GR65630 added at a concentration of 3.5×10^−10 M. An initial single concentration of 10^−7 M of the test compound was then added. Incubation was carried out at room temperature for 60 minutes at 25° C. then was terminated by rapid removal of the incubation medium. Radioactivity was assessed using liquid scintillation spectrophotometry after exposure to scintillation cocktail for at least three hours. […] Ki values were then calculated from the Cheng-Prusoff equation. In all of the above binding studies the non-specific determinant was MDL-72222 (1.0 μM).
(§2) In the table below, the assay in which the data were obtained is shown (as A, B. C, or D) along with the data.

human 5-HT3 receptor [1] = target: T3, human 5-HT3 receptor (Homo sapiens, UniProt P46098); assay: Compound affinity for the human 5-HT3 receptor (Assay B), SPA radioligand binding with [9-methyl-3H]BRL-43694; set-up: purchased Perkin Elmer
T3 sequence (P46098 24-478): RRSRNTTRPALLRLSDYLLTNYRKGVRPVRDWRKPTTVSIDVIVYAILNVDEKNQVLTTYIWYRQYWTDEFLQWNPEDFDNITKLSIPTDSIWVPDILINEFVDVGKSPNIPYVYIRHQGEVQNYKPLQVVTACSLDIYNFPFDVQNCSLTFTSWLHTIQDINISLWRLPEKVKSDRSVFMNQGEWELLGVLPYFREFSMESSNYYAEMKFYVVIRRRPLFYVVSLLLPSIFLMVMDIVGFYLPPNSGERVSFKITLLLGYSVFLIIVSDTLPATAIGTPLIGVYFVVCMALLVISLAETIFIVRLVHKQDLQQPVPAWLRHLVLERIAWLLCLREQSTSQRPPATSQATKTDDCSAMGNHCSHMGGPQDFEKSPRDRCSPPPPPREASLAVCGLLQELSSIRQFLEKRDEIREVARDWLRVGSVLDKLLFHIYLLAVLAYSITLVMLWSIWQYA
Protocol: Compound Affinity for the Human 5-HT3 Receptor (Assay B)
The relative affinity of the various compounds for the human 5-HT3 receptor was measured in a radioligand binding assay, using a scintillation proximity assay (SPA) format. Test compounds were dissolved to 10 mM in 100% DMSO, then serially diluted at 10× assay concentrations in 100% DMSO in 96-well polypropylene plates and further diluted to 4× assay concentrations with the assay buffer. Samples were incubated in 50 mM Tris-HCl, pH 7.5, 3 mM MgCl2, 1 mM EDTA and 10% DMSO with 10 nM [9-methyl-3H]BRL-43694 (Perkin Elmer), 3 μg of human 5-HT3 receptor membranes (Perkin Elmer) and 0.5 mg/mL SPA beads (WGA PVT, Amersham Biosciences) in a final volume of 0.2 mL. Binding reactions were set up in wells of PicoPlates-96 (Perkin Elmer) by adding consecutively 50 μL of each competing compound or buffer, SPA beads, the radioligand and 5-HT3 receptor membranes. After 60-min incubation at room temperature on a Nutator mixer, plates were centrifuged for 15 min at 1,500 rpm, followed by incubation in the dark for 30 min. Radioactivity was counted in the TopCount microplate counter (Perkin Elmer) for 5 min. Total binding control contained buffer only; nonspecific binding was determined in the presence of 30 μM MDL-72222. Specific binding was determined by subtracting nonspecific binding from total binding. All experiments were performed in duplicate using ten concentrations of a competing ligand, with ondansetron included as a control in every run. IC50 values were determined from specific binding data using XLfit4.1 curve fitting software from IDBS Ltd. Ki values were then calculated from the Cheng-Prusoff equation.
as §2

human 5-HT3 receptor [2] = target: T3, human 5-HT3 receptor; assay: Compound affinity for the human 5-HT3 receptor (Assay A), [3H]-GR65630 radioligand binding, MDS Pharma; set-up: host or cells: N1E-155 cell lines (so in the source)
Protocol: Compound Affinity for the Human 5-HT3 Receptor (Assay A)
as §1, with “tested by MDS Pharma Services—Taiwan Ltd., 158 Li—The Road, Peitou, Taipei, Taiwan 112 R.O.C. In order” for “tested by Novoscreen Biosciences Corporation, 7170 Standard Drive, Hanover, Md. in a radioligand binding assay using the mouse 5-HT3 receptor derived from mouse neuroblastoma cells and [^3H]-GR65630 (ligand). The non-specific binding determinant was MDL 72222. Compounds were tested at a single concentration of 100 nM in duplicate. Percent inhibition is reported. In order”, “for the human 5-HT3 receptor,” for “for the 5-HT3 receptor,”
as §2

[3] = Assay A, [3H]-GR65630, Cheng-Prusoff, read-out: Human 5HT3 Ki

Row | Compound | inhibition of 5-HT-induced bradycardia (5-HT3 receptors) | inhibition at 0.1 µM (mouse 5-HT3 receptor) | Ki (human 5-HT3 receptor [1]) | Ki (human 5-HT3 receptor [2]) | Ki (human 5-HT3 receptor [2]; [3])
1 | CN1[C@@H]2CCC[C@H]1C[C@@H](NC(=O)c1cccc3oc(C4CC4)nc13)C2 [Example 1, Endo-N-(9-Methyl-9-azabicyclo[3.3.1]non-3-yl)-2-cyclopropylbenzoxazole-4-carboxamide] | 56% | 96.1% | 4.1 nM | – | –
2 | O=C(N[C@@H]1CN2CCC1CC2)c1cccc2oc(C3CC3)nc12 [Example 2, (S)—N-(1-Azabicyclo[2.2.2]oct-3-yl)-2-cyclopropylbenzoxazole-4-carboxamide] | 80% | 87.7% | 11 nM | – | –
3 | CN1[C@@H]2CCC[C@H]1C[C@@H](NC(=O)c1cccc3oc(C4CCCC4)nc13)C2 [Example 5, Endo-N-(9-Methyl-9-azabicyclo[3.3.1]non-3-yl)-2-cyclopentylbenzoxazole-4-carboxamide Hydrochloride] | – | 96.2% | – | 2.27 nM | –
4 | CC1CC1c1nc2c(C(=O)NC3CC4CCCC(C3)N4C)cccc2o1 (stereo not drawn) [Example 13, Endo-N-(9-Methyl-9-azabicyclo[3.3.1]non-3-yl)-2-(2-methylcyclopropyl)benzoxazole-4-carboxamide Hydrochloride] | – | 88.1% | – | 5.74 nM | –
5 | O=C(N[C@@H]1CN2CCC1CC2)c1cccc2ocnc12 [Example 22, (S)—N-(1-Azabicyclo[2.2.2]oct-3-yl)-benzoxazole-4-carboxamide Hydrochloride] | – | – | – | – | 16.6 nM
6 | CC(=O)N1CCC(c2nc3c(C(=O)N[C@H]4C[C@H]5CCC[C@@H](C4)N5C)cccc3o2)CC1 [Example 23, Endo-N-(9-methyl-9-azabicyclo[3.3.1]non-3-yl)-2-(1-acetylpiperidin-4-yl)benzoxazole-4-carboxamide Hydrochloride] | – | – | – | – | 36.6 nM
7 | CN1[C@@H]2CCC[C@H]1C[C@@H](NC(=O)c1cccc3oc(C4CCOCC4)nc13)C2 [Example 24, Endo-N-(9-methyl-9-azabicyclo[3.3.1]non-3-yl)-2-(tetrahydro-2H-pyran-4-yl)benzoxazole-4-carboxamide Hydrochloride] | – | – | – | – | 17.6 nM
